According to ChEMBL document CHEMBL5352406 (Eur J Med Chem, 2022):
pIC50: −log10 of the molar value.

Tests used:
SW480 = test: Antiproliferative activity against human SW480 cells assessed as cell growth inhibition after 72 hrs by MTT assay; type: functional
HCT-116 = test: Antiproliferative activity against human HCT-116 cells assessed as cell growth inhibition after 72 hrs by MTT assay; type: functional
Cholinesterase = Cholinesterase (Equus caballus, UniProt P81908); test: Inhibition of equine serum BuChE using […] as substrate for 20 mins by Ellman's method
Acetylcholinesterase = Acetylcholinesterase (Electrophorus electricus, UniProt O42275); test: Inhibition of electric eel AChE using acetylthiocholine […] as substrate for 20 mins by Ellman's method
A549 = test: Antiproliferative activity against human A549 cells assessed as cell growth inhibition after 72 hrs by MTT assay; type: functional
CDK2/Cyclin A2 = CDK2/Cyclin A2 (Homo sapiens, UniProt P24941); type: protein-complex assay
Description: Inhibition of human full length CDK2/CyclinA2 by ADP-Glo kinase assay

MCF7 = test: Antiproliferative activity against human MCF7 cells assessed as cell growth inhibition after 72 hrs by MTT assay; type: functional
[1] = target: CDK9/cyclin T1 (Homo sapiens) (UniProt O60563+P50750); test: Inhibition of CDK9/CyclinT1 (unknown origin) at 500 nM by ADP-Glo kinase assay relative to control; type: protein-complex assay
[2] = Selectivity index, ratio of IC50 for electric eel AChE to IC50 for CDK9/CyclinT1 (unknown origin)
[3] = Selectivity index, ratio of IC50 for human full length CDK2/CyclinA to IC50 for CDK9/CyclinT1 (unknown origin)
CDK9/cyclin T1 = CDK9/cyclin T1 (Homo sapiens, UniProt P50750)
Description: Inhibition of CDK9/CyclinT1 (unknown origin) by ADP-Glo kinase assay

[4] = Selectivity index, ratio of IC50 for equine serum BuChE to IC50 for CDK9/CyclinT1 (unknown origin)
[5] = target: CDK2/Cyclin A2 (Homo sapiens) (UniProt P24941+P20248); test: Inhibition of human full length CDK2/CyclinA2 at 500 nM by ADP-Glo kinase assay relative to control; type: protein-complex assay

Sequence of Acetylcholinesterase (O42275 whole entry): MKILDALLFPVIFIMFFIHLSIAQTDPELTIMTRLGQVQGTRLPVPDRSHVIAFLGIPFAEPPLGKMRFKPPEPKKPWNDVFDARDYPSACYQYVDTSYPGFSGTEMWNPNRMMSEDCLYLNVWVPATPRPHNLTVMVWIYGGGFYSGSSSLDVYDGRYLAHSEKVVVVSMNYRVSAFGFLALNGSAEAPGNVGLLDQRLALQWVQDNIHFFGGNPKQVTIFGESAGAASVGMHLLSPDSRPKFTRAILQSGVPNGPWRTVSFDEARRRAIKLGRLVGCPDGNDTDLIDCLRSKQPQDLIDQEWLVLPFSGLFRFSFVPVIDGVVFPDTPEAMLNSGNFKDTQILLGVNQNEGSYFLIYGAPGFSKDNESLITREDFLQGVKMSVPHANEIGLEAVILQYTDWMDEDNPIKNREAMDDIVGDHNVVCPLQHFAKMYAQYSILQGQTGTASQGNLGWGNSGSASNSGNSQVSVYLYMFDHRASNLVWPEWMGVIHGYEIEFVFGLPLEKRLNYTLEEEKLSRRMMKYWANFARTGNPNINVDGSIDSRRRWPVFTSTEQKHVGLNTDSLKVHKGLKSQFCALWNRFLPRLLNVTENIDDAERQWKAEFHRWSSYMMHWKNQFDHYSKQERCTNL
Sequence of CDK9/cyclin T1 (O60563 whole entry): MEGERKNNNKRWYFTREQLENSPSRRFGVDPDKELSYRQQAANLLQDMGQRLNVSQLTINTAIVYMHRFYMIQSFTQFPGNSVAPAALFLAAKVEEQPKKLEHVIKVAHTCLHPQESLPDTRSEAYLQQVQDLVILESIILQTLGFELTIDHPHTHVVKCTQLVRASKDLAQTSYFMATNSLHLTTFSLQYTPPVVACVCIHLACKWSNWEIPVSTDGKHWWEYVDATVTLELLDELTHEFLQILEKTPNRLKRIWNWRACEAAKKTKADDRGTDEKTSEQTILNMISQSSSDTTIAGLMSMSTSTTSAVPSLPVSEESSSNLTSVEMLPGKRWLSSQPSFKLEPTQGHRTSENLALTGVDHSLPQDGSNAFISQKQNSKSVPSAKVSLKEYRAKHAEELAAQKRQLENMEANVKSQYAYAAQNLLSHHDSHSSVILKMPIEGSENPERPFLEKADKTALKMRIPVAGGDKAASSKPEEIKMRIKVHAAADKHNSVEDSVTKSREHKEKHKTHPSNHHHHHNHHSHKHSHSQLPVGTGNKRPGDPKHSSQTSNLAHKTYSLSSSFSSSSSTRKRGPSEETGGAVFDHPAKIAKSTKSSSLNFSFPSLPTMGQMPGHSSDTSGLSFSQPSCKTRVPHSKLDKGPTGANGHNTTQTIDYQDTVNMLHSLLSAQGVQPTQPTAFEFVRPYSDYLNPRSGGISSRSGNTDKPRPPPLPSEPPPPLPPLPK
Sequence of CDK9/cyclin T1 (P50750 whole entry): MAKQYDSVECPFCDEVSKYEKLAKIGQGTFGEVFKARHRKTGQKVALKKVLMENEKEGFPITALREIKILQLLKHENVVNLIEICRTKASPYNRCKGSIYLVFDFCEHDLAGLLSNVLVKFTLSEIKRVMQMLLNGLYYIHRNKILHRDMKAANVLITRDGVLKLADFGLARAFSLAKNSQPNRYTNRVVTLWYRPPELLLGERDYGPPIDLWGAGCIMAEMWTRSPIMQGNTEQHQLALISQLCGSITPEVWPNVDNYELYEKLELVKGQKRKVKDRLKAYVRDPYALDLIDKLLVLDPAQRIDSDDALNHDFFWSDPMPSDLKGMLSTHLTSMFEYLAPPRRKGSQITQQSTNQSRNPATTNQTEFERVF
Sequence of Cholinesterase (P81908 whole entry): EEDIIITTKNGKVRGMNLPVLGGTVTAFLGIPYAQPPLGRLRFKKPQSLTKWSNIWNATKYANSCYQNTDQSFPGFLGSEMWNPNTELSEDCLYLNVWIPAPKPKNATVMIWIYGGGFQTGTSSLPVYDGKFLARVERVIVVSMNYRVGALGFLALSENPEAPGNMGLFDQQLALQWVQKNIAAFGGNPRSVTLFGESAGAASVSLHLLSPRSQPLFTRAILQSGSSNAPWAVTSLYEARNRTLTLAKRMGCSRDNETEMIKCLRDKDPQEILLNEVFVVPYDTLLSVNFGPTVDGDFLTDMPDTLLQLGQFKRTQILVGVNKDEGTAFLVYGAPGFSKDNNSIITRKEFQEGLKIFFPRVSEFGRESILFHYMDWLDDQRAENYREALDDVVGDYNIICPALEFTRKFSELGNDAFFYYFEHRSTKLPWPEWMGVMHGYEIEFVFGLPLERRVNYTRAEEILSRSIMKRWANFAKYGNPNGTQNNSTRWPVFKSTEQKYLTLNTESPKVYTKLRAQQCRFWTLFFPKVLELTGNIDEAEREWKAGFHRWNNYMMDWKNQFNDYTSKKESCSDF

Row | Structure (SMILES) | GI50 (SW480) | GI50 (HCT-116) | pIC50 (Cholinesterase) | pIC50 (Acetylcholinesterase) | GI50 (A549) | pIC50 (CDK2/Cyclin A2) | GI50 (MCF7) | inhibition [1] | Selectivity Index [2] | Selectivity Index [3] | pIC50 (CDK9/cyclin T1) | Selectivity Index [4] | inhibition [5]
1 | N[C@H]1CCN(c2c3c(nc4ccc(-c5ccnc(F)c5)cc24)CCCCC3)C1 | 4690 nM | 3980 nM | 5.65 | 4.67 | 8440 nM | < 6.30 | 7080 nM | 73% | – | – | – | – | –
2 | N[C@H]1CCN(c2c3c(nc4ccc(-c5ccnc(NC(=O)C6CC6)c5)cc24)CCCCC3)C1 | 33 nM | 18 nM | 5.71 | 4.51 | 28 nM | 8.26 | 76 nM | – | 14200 | 3 | 8.66 | 894 | –
3 | N[C@H]1CCN(c2c3c(nc4ccc(-c5nccc(NC(=O)C6CC6)n5)cc24)CCCCC3)C1 | > 3000 nM | > 3000 nM | 5.60 | 4.75 | > 10000 nM | < 6.30 | 8390 nM | – | – | – | < 6.30 | – | –
4 | N[C@H]1CCN(c2c3c(nc4ccc(-c5ccnc(Nc6ccc(S(=O)(=O)N7CCCC7)cc6)c5)cc24)CCCCC3)C1 | 3520 nM | 6020 nM | 5.30 | < 4.30 | 2690 nM | – | 3240 nM | – | – | – | < 6.30 | – | 74.8%
5 | N[C@H]1CCN(c2c3c(nc4ccc(-c5ccnc(Nc6ccc(S(=O)(=O)N7CCNCC7)cc6)c5)cc24)CCCCC3)C1 | 7800 nM | 5820 nM | 5.55 | 4.71 | 7530 nM | – | 11600 nM | – | – | – | < 6.30 | – | 84%
6 | N[C@H]1CCN(c2c3c(nc4ccc(-c5ccnc(NC(=O)C6CC6)n5)cc24)-c2ccccc2CCC3)C1 | 9530 nM | > 10000 nM | 4.90 | < 4.30 | 9470 nM | < 6.30 | 6330 nM | 72.7% | – | – | – | – | –
7 | N[C@H]1CCN(c2c3c(nc4ccc(-c5ccnc(Nc6ccc(S(=O)(=O)N7CCOCC7)cc6)c5)cc24)CCCCC3)C1 | 3680 nM | 2260 nM | 5.74 | 4.60 | 2610 nM | – | 3180 nM | 62.4% | – | – | – | – | 89.5%
8 | CS(=O)(=O)c1ccc(Nc2cc(-c3ccc4nc5c(c(N6CC[C@H](N)C6)c4c3)CCCCC5)ccn2)cc1 | 3520 nM | 3010 nM | 5.52 | 4.62 | 2780 nM | – | 3160 nM | 80.2% | – | – | – | – | 90.1%
9 | N[C@H]1CCN(c2c3c(nc4ccc(-c5ccnc(NC(=O)C6CCC6)c5)cc24)CCCCCC3)C1 | 118 nM | 46 nM | 6.16 | 4.58 | 109 nM | 8.11 | 108 nM | – | 8920 | 3 | 8.53 | 235 | –
10 | N[C@H]1CCN(c2c3c(nc4ccc(-c5ccnc(NC(=O)C6CCC6)c5)cc24)CCCCC3)C1 | 80 nM | 86 nM | 5.93 | 4.75 | 77 nM | 7.97 | 168 nM | – | 4290 | 3 | 8.39 | 288 | –
11 | N[C@H]1CCN(c2c3c(nc4ccc(-c5ccncc5)cc24)CCCCC3)C1 | 458 nM | 272 nM | 6.37 | 4.61 | 393 nM | < 6.30 | 424 nM | – | 2970 | – | 8.08 | 51 | –
12 | N[C@H]1CCN(c2c3c(nc4ccc(-c5cc(NC(=O)C6CC6)ncn5)cc24)CCCCC3)C1 | 316 nM | 201 nM | 5.41 | 5.14 | 166 nM | 7.83 | 161 nM | – | 1250 | 3 | 8.24 | 669 | –
13 | N[C@H]1CCN(c2c3c(nc4ccc(-c5ccnc(NC(=O)C6CCCCC6)c5)cc24)CCCCC3)C1 | 1260 nM | 262 nM | 5.78 | 4.68 | 308 nM | 7.23 | 404 nM | – | 9550 | 27 | 8.66 | 763 | –
14 | N[C@H]1CCN(c2c3c(nc4ccc(-c5ccnc(NC(=O)C6CC6)n5)cc24)CCCCCC3)C1 | 18 nM | 14 nM | 5.56 | 4.68 | 64 nM | 7.73 | 71 nM | – | 7200 | 7 | 8.54 | 948 | –
15 | N[C@H]1CCN(c2c3c(nc4ccc(-c5ccnc(NC(=O)C6CCCC6)c5)cc24)CCCCC3)C1 | 65 nM | 134 nM | 5.93 | 4.77 | 83 nM | 7.75 | 210 nM | – | 6180 | 6 | 8.56 | 425 | –
16 | CN(C)S(=O)(=O)c1ccc(Nc2cc(-c3ccc4nc5c(c(N6CC[C@H](N)C6)c4c3)CCCCC5)ccn2)cc1 | 1810 nM | 2180 nM | 5.98 | 4.45 | 1990 nM | < 6.30 | 3110 nM | – | 346 | 0.5 | 6.99 | 10 | –
17 | N[C@H]1CCN(c2c3c(nc4ccc(-c5ccnc(NC(=O)C6CCC6)c5)cc24)CCC3)C1 | 456 nM | 138 nM | 5.50 | 5.75 | 195 nM | 7.07 | 333 nM | – | 275 | 13 | 8.19 | 497 | –
18 | N[C@H]1CCN(c2c3c(nc4ccc(-c5ccnc(NC(=O)C6CC6)c5)cc24)CCCCCC3)C1 | 34 nM | 14 nM | – | 4.76 | 52 nM | 8.53 | 65 nM | – | 9210 | 2 | – | – | –
19 | N[C@H]1CCN(c2c3c(nc4ccc(-c5ccnc(Nc6cccc(S(=O)(=O)N7CCOCC7)c6)c5)cc24)CCCCC3)C1 | 3200 nM | 2000 nM | 5.70 | 4.54 | 3300 nM | < 6.30 | 3440 nM | 57.5% | – | – | – | – | –
20 | N[C@H]1CCN(c2c3c(nc4ccc(-c5ccnc(NC(=O)C6CC6)c5)cc24)-c2ccccc2CCC3)C1 | 3050 nM | 2670 nM | 5.48 | < 4.30 | 1900 nM | < 6.30 | 2220 nM | – | – | – | 6.95 | 28 | –
21 | N[C@H]1CCN(c2c3c(nc4ccc(-c5ccccc5)cc24)CCCCC3)C1 | 2930 nM | 5880 nM | 6.88 | 4.72 | 9530 nM | < 6.30 | 4060 nM | – | – | – | < 6.30 | – | –
22 | N[C@H]1CCN(c2c3c(nc4ccc(-c5ccnc(C(=O)NC6CC6)c5)cc24)CCCCC3)C1 | 9120 nM | 4740 nM | 5.30 | 5.25 | > 10000 nM | < 6.30 | 10400 nM | – | – | – | < 6.30 | – | –
23 | N[C@H]1CCN(c2c3c(nc4ccc(-c5ccnc(NC(=O)C6CC6)c5)cc24)CCC3)C1 | 251 nM | 73 nM | 5.22 | 5.65 | 191 nM | 6.60 | 203 nM | – | 671 | 75 | 8.47 | 1790 | –
24 | N[C@@H]1CCN(c2c3c(nc4ccc(-c5ccnc(NC(=O)C6CC6)c5)cc24)CCCCC3)C1 | 49 nM | 39 nM | 5.32 | – | 41 nM | 8.19 | 80 nM | – | – | 3 | – | 2560 | –
25 | N[C@H]1CCN(c2c3c(nc4ccc(-c5ccnc(NC(=O)C6CC6)c5)cc24)CCCC3)C1 | 328 nM | 29 nM | – | – | – | – | 109 nM | – | – | – | 8.65 | – | –
26 | N[C@H]1CCN(c2c3c(nc4ccc(-c5cccnc5)cc24)CCCCC3)C1 | > 3000 nM | > 10000 nM | 6.14 | 4.86 | > 10000 nM | < 6.30 | > 10000 nM | – | – | – | < 6.30 | – | –
27 | CN1CCN(S(=O)(=O)c2ccc(Nc3cc(-c4ccc5nc6c(c(N7CC[C@H](N)C7)c5c4)CCCCC6)ccn3)cc2)CC1 | 3220 nM | 2000 nM | 5.36 | 4.62 | 3210 nM | – | 2730 nM | 57.2% | – | – | – | – | 85%
